# Reference: ChEMBL document CHEMBL3508693 (2016)
# What was measured:
# [1] = % aliskiren hemifumarate recovered as M12 in urine following single oral dose of 300 mg [14C]SPP100 studied in healthy men; assay type: ADME, organism-based; conditions: human, in vivo
# [2] = % aliskiren hemifumarate recovered as M12 in faeces following single oral dose of 300 mg [14C]SPP100 studied in healthy men; assay type: ADME, organism-based, Feces; conditions: human, in vivo, at 300 mg
# [3] = % aliskiren hemifumarate recovered as M12 in urine and faeces following single oral dose of 300 mg [14C]SPP100 studied in healthy men; assay type: ADME, organism-based, Urine/Feces; conditions: human, in vivo, at 300 mg
# [4] = % of radioactivity recovered as M12 in plasma following oral administration of [14C] aliskiren hemifumarate at 100 mg.Kg-1 level in rat; assay type: ADME, organism-based, Albino HAN:WIST; conditions: in vivo
# [5] = % of radioactivity recovered as M12 in urine following oral administration of [14C] aliskiren hemifumarate at 100 mg.Kg-1 level in rat; assay type: ADME, organism-based, Albino HAN:WIST; conditions: in vivo
# [6] = % of radioactivity recovered as M12 in faeces following oral administration of [14C] aliskiren hemifumarate at 100 mg.Kg-1 level in rat; assay type: ADME, organism-based, Albino HAN:WIST, Feces; conditions: in vivo
# [7] = % of radioactivity recovered as M12 in plasma following intravenous administration of [14C] aliskiren hemifumarate at 10 mg.Kg-1 level in rat; assay type: ADME, organism-based, Albino HAN:WIST; conditions: in vivo
# [8] = % of radioactivity recovered as M12 in urine following intravenous administration of [14C] aliskiren hemifumarate at 10 mg.Kg-1 level in rat; assay type: ADME, organism-based, Albino HAN:WIST; conditions: in vivo
# [9] = % of radioactivity recovered as M12 in faeces following intravenous administration of [14C] aliskiren hemifumarate at 10 mg.Kg-1 level in rat; assay type: ADME, organism-based, Albino HAN:WIST, Feces; conditions: in vivo
# [10] = % aliskiren recovered as metabolite M12 in plasma following 10 day repeated oral administration of [14C] aliskiren hemifumarate at 100 mg.Kg-1 level studied in rat; assay type: ADME, organism-based, Albino HAN:WIST; conditions: in vivo, 240 h
# [11] = % aliskiren recovered as metabolite M12 in urine following 10 day repeated oral administration of [14C] aliskiren hemifumarate at 100 mg.Kg-1 level studied in rat; assay type: ADME, organism-based, Albino HAN:WIST; conditions: in vivo, 240 h
# [12] = % aliskiren recovered as metabolite M12 in faeces following 10 day repeated oral administration of [14C] aliskiren hemifumarate at 100 mg.Kg-1 level studied in rat; assay type: ADME, organism-based, Albino HAN:WIST, Feces; conditions: in vivo, 240 h
# [13] = % aliskiren hemifumarate recovered as M9 in urine following single oral dose of 300 mg [14C]SPP100 studied in healthy men; assay type: ADME, organism-based; conditions: human, in vivo
# [14] = % aliskiren hemifumarate recovered as M9 in faeces following single oral dose of 300 mg [14C]SPP100 studied in healthy men; assay type: ADME, organism-based, Feces; conditions: human, in vivo
# [15] = % aliskiren hemifumarate recovered as M9 in urine and faeces following single oral dose of 300 mg [14C]SPP100 studied in healthy men; assay type: ADME, organism-based, Urine/Feces; conditions: human, in vivo
# [16] = % of radioactivity recovered as M9 from M2 in plasma following oral administration of [14C] aliskiren hemifumarate at 100 mg.Kg-1 level in rat; assay type: ADME, organism-based, Albino HAN:WIST; conditions: in vivo
# [17] = % of radioactivity recovered as M9 from M2 in urine following oral administration of [14C] aliskiren hemifumarate at 100 mg.Kg-1 level in rat; assay type: ADME, organism-based, Albino HAN:WIST; conditions: in vivo
# [18] = % of radioactivity recovered as M9 from M2 in faeces following oral administration of [14C] aliskiren hemifumarate at 100 mg.Kg-1 level in rat; assay type: ADME, organism-based, Albino HAN:WIST, Feces; conditions: in vivo
# [19] = % of radioactivity recovered as M9 from M2 in plasma following intravenous administration of [14C] aliskiren hemifumarate at 10 mg.Kg-1 level in rat; assay type: ADME, organism-based, Albino HAN:WIST; conditions: in vivo
# [20] = % of radioactivity recovered as M9 from M2 in urine following intravenous administration of [14C] aliskiren hemifumarate at 10 mg.Kg-1 level in rat; assay type: ADME, organism-based, Albino HAN:WIST; conditions: in vivo
# [21] = % of radioactivity recovered as M9 from M2 in faeces following intravenous administration of [14C] aliskiren hemifumarate at 10 mg.Kg-1 level in rat; assay type: ADME, organism-based, Albino HAN:WIST, Feces; conditions: in vivo
# [22] = % aliskiren recovered as metabolite M9 in plasma following 10 day repeated oral administration of [14C] aliskiren hemifumarate at 100 mg.Kg-1 level studied in rat; assay type: ADME, organism-based, Albino HAN:WIST; conditions: in vivo, 240 h
# [23] = % aliskiren recovered as metabolite M9 in urine following 10 day repeated oral administration of [14C] aliskiren hemifumarate at 100 mg.Kg-1 level studied in rat; assay type: ADME, organism-based, Albino HAN:WIST; conditions: in vivo, 240 h
# [24] = % aliskiren recovered as metabolite M9 in faeces following 10 day repeated oral administration of [14C] aliskiren hemifumarate at 100 mg.Kg-1 level studied in rat; assay type: ADME, organism-based, Albino HAN:WIST, Feces; conditions: in vivo, 240 h
# [25] = biological target: T1, CYP2A6 (Homo sapiens, UniProt P11509); assay: in vitro; conditions: probe coumarine
# T1 sequence (P11509 whole entry): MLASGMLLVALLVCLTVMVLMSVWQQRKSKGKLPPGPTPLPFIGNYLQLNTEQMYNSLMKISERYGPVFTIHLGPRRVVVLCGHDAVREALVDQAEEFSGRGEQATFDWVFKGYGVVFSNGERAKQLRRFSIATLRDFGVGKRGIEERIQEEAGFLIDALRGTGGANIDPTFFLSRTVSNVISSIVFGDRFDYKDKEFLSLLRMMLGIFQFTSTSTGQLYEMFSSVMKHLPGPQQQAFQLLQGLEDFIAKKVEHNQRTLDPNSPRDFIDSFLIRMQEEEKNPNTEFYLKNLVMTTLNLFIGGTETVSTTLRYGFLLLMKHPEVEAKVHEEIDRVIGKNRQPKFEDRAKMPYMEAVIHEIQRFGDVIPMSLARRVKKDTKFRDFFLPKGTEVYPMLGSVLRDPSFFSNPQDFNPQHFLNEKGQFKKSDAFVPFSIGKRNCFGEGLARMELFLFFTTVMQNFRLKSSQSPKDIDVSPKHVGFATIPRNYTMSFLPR
# [26] = biological target: T1, CYP2A6; assay: in vitro; conditions: probe coumarine; remark: listed apart in the source
# [27] = biological target: T1, CYP2A6; assay: in vitro; conditions: probe coumarine; remark: listed apart in the source
# [28] = biological target: T2, CYP2C19 (Homo sapiens, UniProt P33261); assay: in vitro; conditions: probe (S)-mephenytoin (50 uM)
# T2 sequence (P33261 whole entry): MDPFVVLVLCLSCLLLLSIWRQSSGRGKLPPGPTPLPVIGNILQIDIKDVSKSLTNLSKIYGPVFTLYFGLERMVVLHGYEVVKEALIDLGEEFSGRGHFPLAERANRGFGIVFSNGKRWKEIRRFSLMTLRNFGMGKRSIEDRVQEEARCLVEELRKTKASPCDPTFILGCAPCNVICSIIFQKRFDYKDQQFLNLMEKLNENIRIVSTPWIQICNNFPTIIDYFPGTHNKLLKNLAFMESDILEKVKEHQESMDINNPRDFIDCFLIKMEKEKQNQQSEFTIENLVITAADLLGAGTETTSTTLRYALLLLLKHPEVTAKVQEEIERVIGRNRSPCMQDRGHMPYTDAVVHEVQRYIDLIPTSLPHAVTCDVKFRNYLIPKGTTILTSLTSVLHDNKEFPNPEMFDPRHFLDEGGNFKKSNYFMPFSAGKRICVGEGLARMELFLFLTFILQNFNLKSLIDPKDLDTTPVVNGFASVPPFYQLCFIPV
# Description: Inhibitory activity of 100 uM tranylcypromine on 49 Pmoles of cDNA-derived CYP2C19 enzyme in microsome prepared from human lymphoblastoid cell line
# [29] = biological target: T2, CYP2C19; assay: in vitro; conditions: probe (S)-mephenytoin (50 uM); remark: listed apart in the source
# Description: Inhibitory activity of 100 uM tranylcypromine on 34 Pmoles of cDNA-derived CYP2C19 enzyme in microsome prepared from human lymphoblastoid cell line
smiles,measurement,setting,value
COCCCOc1cc(C[C@@H](C[C@H](NC(C)=O)[C@@H](O)C[C@H](C(=O)NCC(C)(C)C(N)=O)C(C)C)C(C)C)ccc1OC,Compound recovery,[1],OUTCOME = Not detected
same,Compound recovery,[2],< 1%
same,Compound recovery,[3],< 1%
same,Compound recovery,[4],OUTCOME = Not detected or not investigated
same,Compound recovery,[5],OUTCOME = Not detected or not investigated
same,Compound recovery,[6],<= 2%
same,Compound recovery,[7],OUTCOME = Not detected or not investigated
same,Compound recovery,[8],OUTCOME = Not detected or not investigated
same,Compound recovery,[9],OUTCOME = Not detected or not investigated
same,Compound recovery,[10],OUTCOME = Not detected
same,Compound recovery,[11],OUTCOME = Not detected
same,Compound recovery,[12],"OUTCOME = Observed, VALUE = Measurable quantities"
COCCCOc1cc(C[C@@H](C[C@H](N)[C@@H]2C[C@H](C(C)C)C(=O)O2)C(C)C)ccc1OC,Compound recovery,[13],OUTCOME = Not detected
same,Compound recovery,[14],OUTCOME = Not detected
same,Compound recovery,[15],OUTCOME = Not detected
same,Compound recovery,[16],OUTCOME = Not detected or not investigated
same,Compound recovery,[17],OUTCOME = Non-radiolabeled metabolite was observed by LC-MS
same,Compound recovery,[18],OUTCOME = Not detected or not investigated
same,Compound recovery,[19],OUTCOME = Not detected or not investigated
same,Compound recovery,[20],OUTCOME = Not detected or not investigated
same,Compound recovery,[21],OUTCOME = Not detected or not investigated
same,Compound recovery,[22],"OUTCOME = Observed, VALUE = Minor amounts"
same,Compound recovery,[23],"OUTCOME = Observed, VALUE = Minor amounts"
same,Compound recovery,[24],"OUTCOME = Observed, VALUE = Minor amounts"
N[C@@H]1C[C@H]1c1ccccc1.N[C@H]1C[C@@H]1c1ccccc1 [TRANYLCYPROMINE],inhibition at 100 µM,[25],97%
same,inhibition at 100 µM,[26],98%
same,inhibition at 100 µM,[27],99%
same,inhibition at 100 µM,[28],96%
same,inhibition at 100 µM,[29],97%
